Source: patent publication US20220289691A1, “5-AMINO-SUBSTITUTED PYRAZOLES AND TRIAZOLES AS PEST CONTROL AGENTS” (Bayer Aktiengesellschaft, priority 2019, published 2022)

System: Spodoptera frugiperda
Experiment: Spodoptera frugiperda spray test
Format: in vivo
Details: foliar, 168 h, 100 g/ha, maize leaf discs, after 7 days, read-out: efficacy (caterpillars killed)
Description: Spodoptera frugiperda—Spray Test Solvent: 78.0 parts by weight of acetone • • 1.5 parts by weight of dimethylformamide Emulsifier: alkylaryl polyglycol ether
(§1) To produce a suitable active compound formulation, 1 part by weight of active compound is dissolved using the stated parts by weight of solvent and made up with water containing an emulsifier concentration of 1000 ppm until the desired concentration is attained. To produce further test concentrations, the formulation is diluted with emulsifier-containing water.
Leaf discs of maize (Zea mays) are sprayed with an active compound formulation of the desired concentration and, after drying, populated with caterpillars of the fall armyworm (Spodoptera frugiperda).
After 7 days, the efficacy in % is determined. 100% means that all the caterpillars have been killed; 0% means that no caterpillar has been killed.

| SMILES | pest or weed control at 100 g/ha |
| --- | --- |
| COCCNc1nc(-c2ccc(C=NNC(=S)Nc3ccccc3C(C)C)cc2)nn1-c1ccc(OC(F)(F)C(F)(F)F)cc1 [Compound I-132] | 100% |
| COc1ccc(C(C)C)c(N2C(=O)CSC2=NN=Cc2ccc(-c3nc(NCCO)n(-c4ccc(OC(F)(F)C(F)(F)F)cc4)n3)cc2)c1 [Compound I-139] | 100% |
| CCOC(CNc1nc(-c2ccc(C=NNC(=S)Nc3ccccc3C(C)C)cc2)nn1-c1ccc(OC(F)(F)F)cc1)OCC [Compound I-074] | 100% |
| CC(C)c1ccccc1N1C(=O)CSC1=NN=Cc1ccc(-c2nc(NCCC#N)n(-c3ccc(OC(F)(F)C(F)(F)F)cc3)n2)cc1 [Compound I-141] | 100% |
| CC(C)c1ccccc1N1C(=O)CSC1=NN=Cc1ccc(-c2nc(NC3CCOC3)n(-c3ccc(OC(F)(F)F)cc3)n2)cc1 (centres unmarked) [Compound I-069] | 100% |
| COCCNc1nc(-c2ccc(C=NN=C3SCC(=O)N3c3cc(OC)ccc3C(C)C)cc2)nn1-c1ccc(OC(F)(F)C(F)(F)F)cc1 [Compound I-130] | 100% |
| COc1ccc(C(C)C)c(N2C(=O)CSC2=NC(=O)Nc2ccc(-c3nc(NCCC#N)n(-c4ccc(OC(F)(F)C(F)(F)F)cc4)n3)cc2)c1 [Compound I-140] | 100% |
| COCCNc1nc(-c2ccc(NC(=O)N=C3SCC(=O)N3c3ccccc3C(C)C)cc2)nn1-c1ccc(OC(F)(F)C(F)(F)F)cc1 [Compound I-128] | 100% |
| COCCCNc1nc(-c2ccc(NC(=O)N=C3SCC(=O)N3c3ccccc3C(C)C)cc2)nn1-c1ccc(OC(F)(F)F)cc1 [Compound I-081] | 100% |
| COCCNc1nc(-c2ccc(NC(=O)N=C3SCC(=O)N3c3cc(OC)ccc3C(C)C)cc2)nn1-c1ccc(OC(F)(F)C(F)(F)F)cc1 [Compound I-131] | 100% |
| COCCNc1nc(-c2ccc(C=NNC(=S)Nc3cc(OC)ccc3C(C)C)cc2)nn1-c1ccc(OC(F)(F)C(F)(F)F)cc1 [Compound I-133] | 100% |
| CCOCCNc1nc(-c2ccc(C=NN=C3SCC(=O)N3c3ccccc3C(C)C)cc2)nn1-c1ccc(OC(F)(F)F)cc1 [Compound I-059] | 100% |
| COc1ccc(C(C)C)c(NC(=S)NN=Cc2ccc(-c3nc(NCCO)n(-c4ccc(OC(F)(F)C(F)(F)F)cc4)n3)cc2)c1 [Compound I-134] | 100% |
| CC(C)c1ccccc1NC(=S)NN=Cc1ccc(-c2nc(NCCC#N)n(-c3ccc(OC(F)(F)C(F)(F)F)cc3)n2)cc1 [Compound I-136] | 100% |
| CC(C)c1ccccc1N1C(=O)CSC1=NN=Cc1ccc(-c2nc(NC3COC3)n(-c3ccc(OC(F)(F)F)cc3)n2)cc1 [Compound I-053] | 100% |
| COc1ccc(C(C)C)c(NC(=S)NN=Cc2ccc(-c3nc(NCCC#N)n(-c4ccc(OC(F)(F)C(F)(F)F)cc4)n3)cc2)c1 [Compound I-137] | 100% |
| CC(C)c1ccccc1NC(=S)NN=Cc1ccc(-c2nc(NS(=O)(=O)C(F)F)n(-c3ccc(OC(F)(F)F)cc3)n2)cc1 [Compound I-028] | 83% |
| COCCNc1nc(-c2ccc(C=NN=C3SCC(=O)N3c3ccccc3C(C)C)cc2)nn1-c1ccc(OC(F)(F)F)cc1 [Compound I-076] | 100% |
| CC(=O)Nc1nc(-c2ccc(C=NNC(=S)Nc3c(C)cccc3C)cc2)nn1-c1ccc(OC(F)(F)F)cc1 [Compound I-011] | 100% |
| COCCNc1nc(-c2ccc(C=NN=C3SCC(=O)N3c3ccccc3C(C)C)cc2)nn1-c1ccc(OC(F)(F)C(F)(F)F)cc1 [Compound I-129] | 100% |
| COCCCNc1nc(-c2ccc(C=NN=C3SCC(=O)N3c3ccccc3C(C)C)cc2)nn1-c1ccc(OC(F)(F)F)cc1 [Compound I-077] | 100% |
| CC(C)c1ccccc1N1C(=O)CSC1=NN=Cc1ccc(-c2nc(NCCO)n(-c3ccc(OC(F)(F)F)cc3)n2)cc1 [Compound I-089] | 100% |

System: Diabrotica balteata
Experiment: Diabrotica balteata spray test
Format: in vivo
Details: 168 h, 500 g/ha (=160 μg/cavity), beetle larvae on wheat, after 7 days, read-out: efficacy (wheat plant growth)
Description: Diabrotica balteata—Spray Test Solvent: 78 parts by weight of acetone • • 1.5 parts by weight of dimethylformamide Emulsifier: alkylaryl polyglycol ether
as §1
Pre-swollen wheat grains (Triticum aestivum) are incubated in a multiwell plate filled with agar and a little water for one day (5 seed grains per cavity). The germinated wheat grains are sprayed with an active compound formulation of the desired concentration. Subsequently, each cavity is infected with 10-20 beetle larvae of Diabrotica balteata.
After 7 days, the efficacy in % is determined. 100% means that all wheat plants have grown as in the untreated, uninfected control; 0% means that no wheat plant has grown.

| SMILES | pest or weed control at 500 g/ha |
| --- | --- |
| CNc1nc(-c2ccc(NC(=O)N=C3SCC(=O)N3c3ccccc3C(C)C)cc2)nn1-c1ccc(OC(F)(F)F)cc1 [Compound I-026] | 80% |
